Like-named read-outs stand apart in the source and are kept apart here.
Tested on: U2OS_Bim cells
Test: Apoptosis inhibition assay (Bim-induced apoptosis, cell viability by ATP level)
Format: cell-based
Conditions: U2OS_Bim cells, means of duplicates, numbering of Tables 4a/4b
Experimental: A chemical library containing 200000 compounds was screened according to the following procedure: U2OS_Bim cells (a cell line in which the BH3-only protein Bim can be inducibly expressed by the addition of Doxycycline to the growth medium)^[2] were plated in 384-well plates with 30 μl medium at a density of 500 cells per well. 16 hrs after plating, test compounds were transferred from stock plates to the assay plates with the cultured cells. Positive control (20 μM zVAD) and negative control (DMSO) were added to every plate. 1 hr after compound treatment, 0.1 ug/mL Doxycyclin (DOX) was added to induce the expression of the Bim protein. After 24 hrs, cell viability was determined by measuring the ATP levels using a Cell Titer-Glo kit (Promega, G7570) according to the manufacturer's instructions. Luminescence was recorded with a PerkinElmer EnSpire Multimode Plate Reader. Compounds that could rescue cell viability to a level above 50% were selected; these compounds were then screened a second time for assurance.
U2OS_Bim or U2OS_tBid cells were plated at a density of 3000 cells per well in 96-well plates. 24 hrs later, cells were treated with experimental compounds, zVAD (positive control) and DMSO (Negative control) for one hour. The cells were then treated with 0.1 μg/mL DOX to trigger apoptosis. 24 hours after the addition of DOX, cell viability was determined by measuring the ATP levels using a Cell Titer-Glo kit. Cell survival rate was calculated.
U2OS_Bim cells (a U2OS stable cell line transfected with a Bim transgene) were cultured in DMEM culture medium (Gibico). On day one, U2OS_Bim cells were plated in 96-well plates at a density of 3000 cells per well. On day two, cells were pretreated with compounds for one hour. Then cells were treated with 0.1 μg/mL doxycycline (DOX) to trigger apoptosis. 24 hours after DOX treatment, cell viability was determined by measuring the ATP levels using the Cell Titer-Glo kit (G7570, Promega), according to the manufacturer's instructions. Luminescence was recorded with a PerkinElmer EnSpire Multimode Plate Reader. Survived cells were normalized to those cells treated with DMSO. zVAD (20 μM) was used as a positive control. Activity data for compounds […] are represented as means f standard deviation of duplicates; activity data for compounds 187-274 are estimated based on preliminary results.

SMILES	EC50 (read-out: EC50) [nM]	EC50 [nM]
CS(=O)(=O)c1nc(-c2ccc(=O)n(Cc3ccc(Cl)cc3)c2)cc(C(F)(F)F)n1 [Compound 106, 1-(4-chlorobenzyl)-5-(2-(methylsulfonyl)-6-(trifluoromethyl)pyrimidin-4-yl)pyridin-2 (1H)-one]	1 to 1000	
CS(=O)(=O)c1nc(-c2ccc(=O)n(Cc3cccc(Br)c3)c2)cc(C(F)(F)F)n1 [Compound 107, 1-(3-bromobenzyl)-5-(2-(methylsulfonyl)-6-(trifluoromethyl)pyrimidin-4-yl)pyridin-2 (1H)-one]	1 to 1000	
CS(=O)(=O)c1nc(-c2ccc(=O)n(Cc3cccc(O)c3)c2)cc(C(F)(F)F)n1 [Compound 108, 1-(3-hydroxybenzyl)-5-(2-(methylsulfonyl)-6-(trifluoromethyl)pyrimidin-4-yl)pyridin-2 (1H)-one]	1000 to 10000	
C[S+]([O-])c1nc(-c2ccc(=O)n(Cc3ccc(OC(F)(F)F)cc3)c2)cc(C(F)(F)F)n1 (stereo not drawn) [Compound 116, 5-(2-(methylsulfinyl)-6-(trifluoromethyl)pyrimidin-4-yl)-1-(4-(trifluoromethoxy)benzyl)pyridin-2 (1H)-one]	1000 to 10000	
CS(=O)(=O)c1nc(-c2ccc(=O)n(Cc3ccc(OC(F)(F)F)cc3)c2)cc(C(F)(F)F)n1 [Compound 117, 5-(2-(methylsulfonyl)-6-(trifluoromethyl)pyrimidin-4-yl)-1-(4-(trifluoromethoxy)benzyl)pyridin-2 (1H)-one]	1000 to 20000	
CS(=O)(=O)c1nc(-c2ccc(=O)n(Cc3cccc(C#N)c3)c2)cc(C(F)(F)F)n1 [Compound 118, 3-((5-(2-(methylsulfonyl)-6-(trifluoromethyl)pyrimidin-4-yl)-2-oxopyridin-1 (2H)-yl)methyl)benzonitrile]	1000 to 20000	
C#Cc1cccc(Cn2cc(-c3cc(C(F)(F)F)nc(S(C)(=O)=O)n3)ccc2=O)c1 [Compound 120, 1-(3-ethynylbenzyl)-5-(2-(methylsulfonyl)-6-(trifluoromethyl)pyrimidin-4-yl) pyridin-2 (1H)-one]	1 to 1000	
C#Cc1cccc(Cn2cc(-c3cc(C(F)(F)F)nc([S+](C)[O-])n3)ccc2=O)c1 (stereo not drawn) [Compound 121, 1-(3-ethynylbenzyl)-5-(2-(methylsulfinyl)-6-(trifluoromethyl)pyrimidin-4-yl)pyridin-2 (1H)-one]	1 to 1000	
COc1ccc(Cn2cc(-c3cc(C(F)(F)F)nc(S(C)(=O)=O)n3)ccc2=O)cc1OC [Compound 127, 1-(3,4-dimethoxybenzyl)-5-(2-(methylsulfonyl)-6-(trifluoromethyl)pyrimidin-4-yl)pyridin-2 (1H)-one]	1 to 1000	
COc1ccc(Cn2cc(-c3cc(C(F)(F)F)nc([S+](C)[O-])n3)ccc2=O)cc1OC (stereo not drawn) [Compound 128, 1-(3,4-dimethoxybenzyl)-5-(2-(methylsulfinyl)-6-(trifluoromethyl)pyrimidin-4-yl)pyridin-2 (1H)-one]	1 to 1000	
C#CCOc1cc(Cn2cc(-c3cc(C(F)(F)F)nc(S(C)(=O)=O)n3)ccc2=O)ccc1OC [Compound 129, 1-(4-methoxy-3-(prop-2-yn-1-yloxy)benzyl)-5-(2-(methylsulfonyl)-6-(trifluoromethyl)pyrimidin-4-yl)pyridin-2 (1H)-one]		1 to 1000
C#CCOc1ccc(Cn2cc(-c3cc(C(F)(F)F)nc(S(C)(=O)=O)n3)ccc2=O)cc1OC [Compound 130, 1-(3-methoxy-4-(prop-2-yn-1-yloxy)benzyl)-5-(2-(methylsulfonyl)-6-(trifluoromethyl)pyrimidin-4-yl)pyridin-2 (1H)-one]		1 to 1000
CS(=O)(=O)c1nc(-c2ccc(=O)n(Cc3ccc(-n4cccn4)cc3)c2)cc(C(F)(F)F)n1 [Compound 132, 1-(4-(1H-pyrazol-1-yl)benzyl)-5-(2-(methylsulfonyl)-6-(trifluoromethyl)pyrimidin-4-yl)pyridin-2 (1H)-one]	1 to 1000	
CS(=O)(=O)c1nc(-c2ccc(=O)n(Cc3cccc4ccccc34)c2)cc(C(F)(F)F)n1 [Compound 133, 5-(2-(methylsulfonyl)-6-(trifluoromethyl)pyrimidin-4-yl)-1-(naphthalen-1-ylmethyl)pyridin-2 (1H)-one]	1000 to 10000	
CS(=O)(=O)c1nc(-c2ccc(=O)n(Cc3ccc4ccccc4c3)c2)cc(C(F)(F)F)n1 [Compound 134, 5-(2-(methylsulfonyl)-6-(trifluoromethyl)pyrimidin-4-yl)-1-(naphthalen-2-ylmethyl)pyridin-2 (1H)-one]	1000 to 10000	
COc1cc(Cn2cc(-c3cc(C(F)(F)F)nc(S(C)(=O)=O)n3)ccc2=O)ccn1 [Compound 135, 1-((2-methoxypyridin-4-yl)methyl)-5-(2-(methylsulfonyl)-6-(trifluoromethyl)pyrimidin-4-yl)pyridin-2 (1H)-one]	1 to 1000	

Further lines, with some results ahead:

EC50 (read-out: EC50) [nM]	SMILES	EC50 [nM]
1 to 1000	COc1cccc(Cn2cc(-c3cc(C(F)(F)F)nc(S(C)(=O)=O)n3)ccc2=O)c1 [Compound 109, 1-(3-methoxybenzyl)-5-(2-(methylsulfonyl)-6-(trifluoromethyl)pyrimidin-4-yl)pyridin-2 (1H)-one]	
1 to 1000	COc1ccc(Cn2cc(-c3cc(C(F)(F)F)nc(S(C)(=O)=O)n3)ccc2=O)cc1 [Compound 110, 1-(4-Methoxybenzyl)-5-(2-(methylsulfonyl)-6-(trifluoromethyl)pyrimidin-4-yl)pyridin-2 (1H)-one]	
1 to 1000	COc1ccc(Cn2cc(-c3cc(C(F)(F)F)nc([S+](C)[O-])n3)ccc2=O)cc1 (stereo not drawn) [Compound 111, 1-(4-Methoxybenzyl)-5-(2-(methylsulfinyl)-6-(trifluoromethyl)pyrimidin-4-yl)pyridin-2 (1H)-one]	
1 to 1000	CCOc1cccc(Cn2cc(-c3cc(C(F)(F)F)nc(S(C)(=O)=O)n3)ccc2=O)c1 [Compound 112, 1-(3-ethoxybenzyl)-5-(2-(methylsulfonyl)-6-(trifluoromethyl)pyrimidin-4-yl)pyridin-2 (1H)-one]	
1 to 1000	CCCOc1cccc(Cn2cc(-c3cc(C(F)(F)F)nc(S(C)(=O)=O)n3)ccc2=O)c1 [Compound 113, 5-(2-(methylsulfonyl)-6-(trifluoromethyl)pyrimidin-4-yl)-1-(3-propoxybenzyl)pyridin-2 (1H)-one]	
1000 to 10000	CCCOc1cccc(Cn2cc(-c3cc(C(F)(F)F)nc([S+](C)[O-])n3)ccc2=O)c1 (stereo not drawn) [Compound 114, 5-(2-(methylsulfinyl)-6-(trifluoromethyl)pyrimidin-4-yl)-1-(3-propoxybenzyl)pyridin-2 (11H)-one]	
1 to 1000	C#CCOc1cccc(Cn2cc(-c3cc(C(F)(F)F)nc(S(C)(=O)=O)n3)ccc2=O)c1 [Compound 115, 5-(2-(methylsulfonyl)-6-(trifluoromethyl)pyrimidin-4-yl)-1-(3-(prop-2-yn-1-yloxy)benzyl) pyridin-2 (1H)-one]	
1000 to 10000	CS(=O)(=O)c1nc(-c2ccc(=O)n(Cc3ccc(C#N)cc3)c2)cc(C(F)(F)F)n1 [Compound 119, 4-((5-(2-(methylsulfonyl)-6-(trifluoromethyl)pyrimidin-4-yl)-2-oxopyridin-1 (2H)-yl)methyl)benzonitrile]	
1 to 1000	C#Cc1ccc(Cn2cc(-c3cc(C(F)(F)F)nc(S(C)(=O)=O)n3)ccc2=O)cc1 [Compound 122, 1-(4-ethynylbenzyl)-5-(2-(methylsulfonyl)-6-(trifluoromethyl)pyrimidin-4-yl)pyridin-2 (1H)-one]	
< 100000	CS(=O)(=O)c1nc(-c2ccc(=O)n(Cc3ccc(N=[N+]=[N-])cc3)c2)cc(C(F)(F)F)n1 [Compound 123, 1-(4-azidobenzyl)-5-(2-(methylsulfonyl)-6-(trifluoromethyl)pyrimidin-4-yl)pyridin-2 (1H)-one]	
1 to 1000	CS(=O)(=O)c1nc(-c2ccc(=O)n(Cc3ccc(Cl)cc3F)c2)cc(C(F)(F)F)n1 [Compound 124, 1-(4-chloro-2-fluorobenzyl)-5-(2-(methylsulfonyl)-6-(trifluoromethyl)pyrimidin-4-yl)pyridin-2 (1H)-one]	
1000 to 10000	C[S+]([O-])c1nc(-c2ccc(=O)n(Cc3ccc(Cl)cc3F)c2)cc(C(F)(F)F)n1 (stereo not drawn) [Compound 125, 1-(4-chloro-2-fluorobenzyl)-5-(2-(methylsulfinyl)-6-(trifluoromethyl)pyrimidin-4-yl)pyridin-2 (1H)-one]	
1 to 1000	COc1ccc(Cn2cc(-c3cc(C(F)(F)F)nc(S(C)(=O)=O)n3)ccc2=O)c(Cl)c1 [Compound 126, 1-(2-chloro-4-methoxybenzyl)-5-(2-(methylsulfonyl)-6-(trifluoromethyl)pyrimidin-4-yl)pyridin-2 (1H)-one]	
1 to 1000	CS(=O)(=O)c1nc(-c2ccc(=O)n(Cc3ccc(-c4ccccc4)cc3)c2)cc(C(F)(F)F)n1 [Compound 131, 1-([1,1′-biphenyl]-4-ylmethyl)-5-(2-(methylsulfonyl)-6-(trifluoromethyl)pyrimidin-4-yl)pyridin-2 (1H)-one]	

Source: patent publication US11725000B2, “Apoptosis inhibitors” (National Institute of Biological Sciences, Beijing, priority 2017, dated 2023)
